Experimental data taken from patent publication US4073903A, “3-Desacetoxymethyl-3- 5'(1-methyltetrazolyl)thio!methyl-7- 1-(4-nitr oimidazolyl)acetyl!aminocephalosporanic acid” (Pierrel S.p.A., priority 1975, dated 1978).
Like-named read-outs stand apart in the source and are kept apart here.

How the values were obtained:
Salmonella heidelberg = assay: MIC against Ampicillin-resistant clinical isolates, broth dilution test (Table IV); conditions: Salmonella enterica, 24 h, read-out: Minimun inhibitory concentration (MIC)
Escherichia coli [1] = assay: Treatment of mice systemically infected with Escherichia coli (Table V); conditions: in Mus musculus, 168 h, read-out: ED50 per treatment
Salmonella wien = assay: MIC against Ampicillin-resistant clinical isolates, broth dilution test (Table IV); conditions: Salmonella enterica, 24 h
Klebsiella pneumoniae [2] = conditions: in Mus musculus, 168 h, read-out: ED50 per treatment
Salmonella essen = assay: MIC against Ampicillin-resistant clinical isolates, broth dilution test (Table IV); conditions: Salmonella enterica, 24 h, read-out: Minimun inhibitory concentration (MIC)
Escherichia coli [3] = assay: MIC against clinical isolates, broth dilution test (Table III); conditions: Escherichia coli, 24 h
Klebsiella pneumoniae [4] = assay: MIC against clinical isolates, broth dilution test (Table II); conditions: Klebsiella pneumoniae, 24 h

Cc1nnc(SCC2=C(C(=O)O)N3C(=O)[C@@H](NC(=O)Cn4cnnn4)[C@H]3SC2)s1 [Cefazolin, reference compound]
1.56 µg/mL: MIC (Escherichia coli [3]; read-out: Minimum inhibitory concentration (MIC), clinical isolate LRP 143) | MIC (Escherichia coli [3]; read-out: Minimum inhibitory concentration (MIC), clinical isolate LRP 155) | MIC (Escherichia coli [3]; read-out: Minimum inhibitory concentration (MIC), clinical isolate LRP 159) | MIC (Klebsiella pneumoniae [4]; read-out: Minimum inhibitory concentration (MIC), clinical isolate LRP 132) | MIC (Klebsiella pneumoniae [4]; read-out: Minimum inhibitory concentration (MIC), clinical isolate LRP 133)
12.5 µg/mL: MIC (Salmonella heidelberg) | MIC (Escherichia coli [3]; read-out: Minimum inhibitory concentration (MIC), clinical isolate LRP 150) | MIC (Escherichia coli [3]; read-out: Minimum inhibitory concentration (MIC), clinical isolate LRP 151)
3.12 µg/mL: MIC (Escherichia coli [3]; read-out: Minimum inhibitory concentration (MIC), clinical isolate LRP 154) | MIC (Escherichia coli [3]; read-out: Minimum inhibitory concentration (MIC), clinical isolate LRP 163) | MIC (Klebsiella pneumoniae [4]; read-out: Minimum inhibitory concentration (MIC), clinical isolate LRP 129) | MIC (Klebsiella pneumoniae [4]; read-out: Minimum inhibitory concentration (MIC), clinical isolate LRP 134)
0.25 µg/mL: MIC (Klebsiella pneumoniae [4]; read-out: Minimum inhibitory concentration (MIC), clinical isolate LRP 137)
25 µg/mL: MIC (Salmonella wien; read-out: Minimun inhibitory concentration (MIC), Ampicillin-resistant clinical isolate LRP 138) | MIC (Escherichia coli [3]; read-out: Minimum inhibitory concentration (MIC), clinical isolate LRP 87) | MIC (Escherichia coli [3]; read-out: Minimum inhibitory concentration (MIC), clinical isolate LRP 158) | MIC (Klebsiella pneumoniae [4]; read-out: Minimum inhibitory concentration (MIC), clinical isolate LRP 128) | MIC (Klebsiella pneumoniae [4]; read-out: Minimum inhibitory concentration (MIC), clinical isolate LRP 130) | MIC (Klebsiella pneumoniae [4]; read-out: Minimum inhibitory concentration (MIC), clinical isolate LRP 131) | MIC (Klebsiella pneumoniae [4]; read-out: Minimum inhibitory concentration (MIC), clinical isolate LRP 135)
35 mg/kg: ED50 (Escherichia coli [1])
90 mg/kg: ED50 (Klebsiella pneumoniae [2])
50 µg/mL: MIC (Salmonella wien; read-out: Minimun inhibitory concentration (MIC), Ampicillin-resistant clinical isolate LRP 140) | MIC (Klebsiella pneumoniae [4]; read-out: Minimum inhibitory concentration (MIC), clinical isolate LRP 136)
100 µg/mL: MIC (Salmonella wien; read-out: Minimun inhibitory concentration (MIC), Ampicillin-resistant clinical isolate LRP 141) | MIC (Escherichia coli [3]; read-out: Minimum inhibitory concentration (MIC), clinical isolate LRP 152)
6.25 µg/mL: MIC (Salmonella essen) | MIC (Escherichia coli [3]; read-out: Minimum inhibitory concentration (MIC), clinical isolate LRP 94) | MIC (Escherichia coli [3]; read-out: Minimum inhibitory concentration (MIC), clinical isolate LRP 96) | MIC (Escherichia coli [3]; read-out: Minimum inhibitory concentration (MIC), clinical isolate LRP 110) | MIC (Escherichia coli [3]; read-out: Minimum inhibitory concentration (MIC), clinical isolate LRP 156)
